Assay results as given in the kinase profiling compilation of Christmann-Franck et al. (2016).

Columns and labels:
Experiment in all cases: KINOMEscan competition binding
Settings in all cases: compound 10.0 µM
AKT1 (human) = AKT1 (human) (UniProt P31749)
BRSK1 (human) = BRSK1 (human) (UniProt Q8TDC3)
BRSK2 (human) = BRSK2 (human) (UniProt Q8IWQ3)
CDC42BPB (human) = CDC42BPB (human) (UniProt Q9Y5S2)
CDC42BPG (human) = CDC42BPG (human) (UniProt Q6DT37)
CDK14 (human) = CDK14 (human) (UniProt O94921)
CDK18 (human) = CDK18 (human) (UniProt Q07002)
CIT (human) = CIT (human) (UniProt O14578)
CLK1 (human) = CLK1 (human) (UniProt P49759)
EPHA4 (human) = EPHA4 (human) (UniProt P54764)
[1] = test system: FLT3 (human), P36888 [K663Q]
HIPK1 (human) = HIPK1 (human) (UniProt Q86Z02)
IRAK3 (human) = IRAK3 (human) (UniProt Q9Y616)
ITK (human) = ITK (human) (UniProt Q08881)
[2] = test system: KIT (human), P10721 [L576P]
[3] = test system: KIT (human), P10721 [V559D/V654A]
[4] = test system: KIT (human), P10721 [V559D]
LATS2 (human) = LATS2 (human) (UniProt Q9NRM7)
LCK (human) = LCK (human) (UniProt P06239)
LIMK2 (human) = LIMK2 (human) (UniProt P53671)
LYN (human) = LYN (human) (UniProt P07948)
MAK (human) = MAK (human) (UniProt P20794)
MAP2K2 (human) = MAP2K2 (human) (UniProt P36507)
MAP3K3 (human) = MAP3K3 (human) (UniProt Q99759)
MAP3K9 (human) = MAP3K9 (human) (UniProt P80192)
MYO3B (human) = MYO3B (human) (UniProt Q8WXR4)
NEK5 (human) = NEK5 (human) (UniProt Q6P3R8)
NEK6 (human) = NEK6 (human) (UniProt Q9HC98)
PAK1 (human) = PAK1 (human) (UniProt Q13153)
PAK3 (human) = PAK3 (human) (UniProt O75914)
PAK4 (human) = PAK4 (human) (UniProt O96013)
PLK1 (human) = PLK1 (human) (UniProt P53350)
PRKCD (human) = PRKCD (human) (UniProt Q05655)
PRKG1 (human) = PRKG1 (human) (UniProt Q13976)
PRKG2 (human) = PRKG2 (human) (UniProt Q13237)
PRKX (human) = PRKX (human) (UniProt P51817)
ROCK1 (human) = ROCK1 (human) (UniProt Q13464)
ROCK2 (human) = ROCK2 (human) (UniProt O75116)
ROS1 (human) = ROS1 (human) (UniProt P08922)
SIK1 (human) = SIK1 (human) (UniProt P57059)
TAOK3 (human) = TAOK3 (human) (UniProt Q9H2K8)
ULK3 (human) = ULK3 (human) (UniProt Q6PHR2)

Sequence of SIK1 (human) (P57059 whole entry, looked up): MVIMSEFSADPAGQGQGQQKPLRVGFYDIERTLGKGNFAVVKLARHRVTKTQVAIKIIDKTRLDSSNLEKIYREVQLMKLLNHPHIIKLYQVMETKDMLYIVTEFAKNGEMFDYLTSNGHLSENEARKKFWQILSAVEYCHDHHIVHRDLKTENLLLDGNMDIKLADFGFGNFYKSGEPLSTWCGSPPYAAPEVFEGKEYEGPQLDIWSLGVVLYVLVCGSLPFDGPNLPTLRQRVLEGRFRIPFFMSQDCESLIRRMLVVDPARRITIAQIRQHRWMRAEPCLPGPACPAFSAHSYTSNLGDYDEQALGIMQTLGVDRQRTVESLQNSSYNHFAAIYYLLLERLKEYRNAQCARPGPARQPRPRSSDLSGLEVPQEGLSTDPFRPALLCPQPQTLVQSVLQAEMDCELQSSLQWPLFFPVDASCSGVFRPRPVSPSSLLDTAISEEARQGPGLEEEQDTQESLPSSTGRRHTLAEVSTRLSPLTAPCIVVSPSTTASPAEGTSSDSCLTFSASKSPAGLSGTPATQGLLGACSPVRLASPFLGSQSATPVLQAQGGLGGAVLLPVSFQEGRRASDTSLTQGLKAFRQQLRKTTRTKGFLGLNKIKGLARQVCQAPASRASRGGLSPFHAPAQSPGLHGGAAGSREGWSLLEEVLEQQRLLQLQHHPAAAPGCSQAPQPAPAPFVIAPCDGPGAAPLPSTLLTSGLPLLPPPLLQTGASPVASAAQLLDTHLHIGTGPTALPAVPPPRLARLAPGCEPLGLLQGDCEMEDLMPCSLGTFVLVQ
Sequence of ROS1 (human) (P08922 whole entry, looked up): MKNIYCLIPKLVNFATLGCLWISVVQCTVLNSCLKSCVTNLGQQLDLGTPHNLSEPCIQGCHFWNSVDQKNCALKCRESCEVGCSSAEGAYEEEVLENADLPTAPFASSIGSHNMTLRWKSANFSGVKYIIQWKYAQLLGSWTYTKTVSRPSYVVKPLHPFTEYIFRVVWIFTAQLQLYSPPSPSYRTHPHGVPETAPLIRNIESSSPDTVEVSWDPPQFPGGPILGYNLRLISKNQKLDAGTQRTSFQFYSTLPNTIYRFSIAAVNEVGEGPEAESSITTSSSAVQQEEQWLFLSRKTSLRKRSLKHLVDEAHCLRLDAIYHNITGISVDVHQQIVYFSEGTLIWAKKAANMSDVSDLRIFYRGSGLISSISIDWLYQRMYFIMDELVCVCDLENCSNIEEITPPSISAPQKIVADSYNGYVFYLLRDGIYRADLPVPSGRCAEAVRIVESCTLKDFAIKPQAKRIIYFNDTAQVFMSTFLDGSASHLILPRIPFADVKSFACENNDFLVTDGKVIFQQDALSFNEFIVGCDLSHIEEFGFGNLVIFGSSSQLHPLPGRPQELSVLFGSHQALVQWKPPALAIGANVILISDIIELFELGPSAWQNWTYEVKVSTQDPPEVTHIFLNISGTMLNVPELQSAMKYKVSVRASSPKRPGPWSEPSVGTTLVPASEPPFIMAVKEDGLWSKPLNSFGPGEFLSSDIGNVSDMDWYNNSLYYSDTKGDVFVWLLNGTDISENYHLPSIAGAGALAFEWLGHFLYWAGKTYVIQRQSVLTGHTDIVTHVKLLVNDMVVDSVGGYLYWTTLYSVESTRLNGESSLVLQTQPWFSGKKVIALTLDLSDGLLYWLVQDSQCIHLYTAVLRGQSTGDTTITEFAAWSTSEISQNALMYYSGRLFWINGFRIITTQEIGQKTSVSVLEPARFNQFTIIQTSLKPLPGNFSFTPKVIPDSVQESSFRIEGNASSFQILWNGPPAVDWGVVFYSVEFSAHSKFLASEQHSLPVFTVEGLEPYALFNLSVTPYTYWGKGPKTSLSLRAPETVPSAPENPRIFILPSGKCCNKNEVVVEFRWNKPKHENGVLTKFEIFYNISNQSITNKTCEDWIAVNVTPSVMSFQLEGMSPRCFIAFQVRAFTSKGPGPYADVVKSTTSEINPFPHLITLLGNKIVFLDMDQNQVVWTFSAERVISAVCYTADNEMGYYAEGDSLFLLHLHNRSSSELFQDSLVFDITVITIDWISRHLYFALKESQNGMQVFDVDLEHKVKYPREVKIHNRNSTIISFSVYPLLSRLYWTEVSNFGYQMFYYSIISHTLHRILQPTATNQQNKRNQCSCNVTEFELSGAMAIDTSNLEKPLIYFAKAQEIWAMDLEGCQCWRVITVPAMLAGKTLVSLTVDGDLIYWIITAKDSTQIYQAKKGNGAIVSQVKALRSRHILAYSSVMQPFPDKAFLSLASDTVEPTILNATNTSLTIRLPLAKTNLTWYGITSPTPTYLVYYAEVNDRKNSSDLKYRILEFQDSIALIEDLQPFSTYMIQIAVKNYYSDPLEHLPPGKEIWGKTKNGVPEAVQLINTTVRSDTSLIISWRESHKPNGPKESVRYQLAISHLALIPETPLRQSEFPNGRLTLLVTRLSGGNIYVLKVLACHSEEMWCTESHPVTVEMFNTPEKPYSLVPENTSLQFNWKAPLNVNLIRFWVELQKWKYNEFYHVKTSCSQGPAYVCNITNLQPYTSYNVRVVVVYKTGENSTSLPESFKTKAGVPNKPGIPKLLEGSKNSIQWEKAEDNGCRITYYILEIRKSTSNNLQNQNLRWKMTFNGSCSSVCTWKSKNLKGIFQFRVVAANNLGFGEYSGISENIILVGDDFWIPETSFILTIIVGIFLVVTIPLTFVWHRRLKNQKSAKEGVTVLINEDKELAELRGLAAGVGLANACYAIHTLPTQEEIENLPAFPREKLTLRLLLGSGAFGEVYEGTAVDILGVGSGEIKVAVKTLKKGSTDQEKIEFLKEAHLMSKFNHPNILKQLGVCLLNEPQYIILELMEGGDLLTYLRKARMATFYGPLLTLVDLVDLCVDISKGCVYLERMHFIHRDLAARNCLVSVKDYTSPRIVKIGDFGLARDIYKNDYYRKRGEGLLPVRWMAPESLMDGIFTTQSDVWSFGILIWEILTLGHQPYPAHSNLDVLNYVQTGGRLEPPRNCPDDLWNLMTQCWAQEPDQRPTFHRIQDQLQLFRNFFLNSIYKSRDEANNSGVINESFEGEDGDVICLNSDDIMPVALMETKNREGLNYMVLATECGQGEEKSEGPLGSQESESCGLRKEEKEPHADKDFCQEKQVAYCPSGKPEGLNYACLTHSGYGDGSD
Sequence of LYN (human) (P07948 whole entry, looked up): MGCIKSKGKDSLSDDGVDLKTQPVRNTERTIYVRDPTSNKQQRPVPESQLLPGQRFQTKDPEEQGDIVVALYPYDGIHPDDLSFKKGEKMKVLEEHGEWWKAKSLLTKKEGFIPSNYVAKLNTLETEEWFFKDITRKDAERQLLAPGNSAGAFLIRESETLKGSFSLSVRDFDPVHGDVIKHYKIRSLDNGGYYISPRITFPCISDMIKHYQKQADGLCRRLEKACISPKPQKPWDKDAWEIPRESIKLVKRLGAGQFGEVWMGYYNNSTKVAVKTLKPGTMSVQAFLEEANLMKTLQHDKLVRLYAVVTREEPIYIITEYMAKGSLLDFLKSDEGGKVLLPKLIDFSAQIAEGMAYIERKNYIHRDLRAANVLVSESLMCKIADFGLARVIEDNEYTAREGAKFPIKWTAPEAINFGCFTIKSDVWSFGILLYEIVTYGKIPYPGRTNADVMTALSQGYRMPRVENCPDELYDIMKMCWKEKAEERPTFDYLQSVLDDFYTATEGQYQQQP
Sequence of PRKG2 (human) (Q13237 whole entry, looked up): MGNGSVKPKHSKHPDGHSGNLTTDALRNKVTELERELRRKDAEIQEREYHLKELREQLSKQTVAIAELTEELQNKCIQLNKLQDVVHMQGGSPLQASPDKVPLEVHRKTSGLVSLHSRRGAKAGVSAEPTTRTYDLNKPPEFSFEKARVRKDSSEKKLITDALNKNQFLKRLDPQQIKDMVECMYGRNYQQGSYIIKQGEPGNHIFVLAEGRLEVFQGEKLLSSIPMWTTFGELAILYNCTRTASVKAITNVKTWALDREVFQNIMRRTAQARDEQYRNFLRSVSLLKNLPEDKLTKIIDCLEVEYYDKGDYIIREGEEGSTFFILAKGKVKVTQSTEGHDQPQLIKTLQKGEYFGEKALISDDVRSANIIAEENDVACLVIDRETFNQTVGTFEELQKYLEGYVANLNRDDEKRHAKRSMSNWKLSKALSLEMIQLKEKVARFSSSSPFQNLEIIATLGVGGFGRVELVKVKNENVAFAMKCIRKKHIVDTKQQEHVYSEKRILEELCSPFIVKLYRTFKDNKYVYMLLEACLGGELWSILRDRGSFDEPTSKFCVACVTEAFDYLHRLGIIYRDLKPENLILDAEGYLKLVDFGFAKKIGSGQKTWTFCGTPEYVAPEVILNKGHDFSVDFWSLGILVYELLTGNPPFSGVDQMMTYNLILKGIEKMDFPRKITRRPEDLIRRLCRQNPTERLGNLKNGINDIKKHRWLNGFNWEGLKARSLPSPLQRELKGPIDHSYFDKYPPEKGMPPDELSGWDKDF
Sequence of IRAK3 (human) (Q9Y616 whole entry, looked up): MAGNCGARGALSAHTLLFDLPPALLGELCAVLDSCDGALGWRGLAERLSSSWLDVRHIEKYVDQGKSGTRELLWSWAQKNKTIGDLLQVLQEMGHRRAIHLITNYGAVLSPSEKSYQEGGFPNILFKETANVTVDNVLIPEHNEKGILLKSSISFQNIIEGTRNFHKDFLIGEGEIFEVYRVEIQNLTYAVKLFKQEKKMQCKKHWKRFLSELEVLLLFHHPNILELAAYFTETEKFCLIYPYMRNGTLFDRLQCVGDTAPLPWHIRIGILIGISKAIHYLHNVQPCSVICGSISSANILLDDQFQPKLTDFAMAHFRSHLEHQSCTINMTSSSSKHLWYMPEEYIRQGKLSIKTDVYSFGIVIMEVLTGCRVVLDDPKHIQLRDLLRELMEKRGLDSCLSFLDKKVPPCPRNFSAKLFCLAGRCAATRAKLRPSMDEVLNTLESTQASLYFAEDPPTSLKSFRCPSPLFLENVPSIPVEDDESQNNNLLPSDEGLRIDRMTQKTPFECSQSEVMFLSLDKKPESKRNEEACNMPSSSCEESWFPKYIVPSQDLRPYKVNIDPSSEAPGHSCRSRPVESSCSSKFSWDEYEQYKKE

kinase still bound, per cent of control (AKT1 (human)): 100%
kinase still bound, per cent of control (BRSK1 (human)): 1.8%
kinase still bound, per cent of control (BRSK2 (human)): 1.1%
kinase still bound, per cent of control (CDC42BPB (human)): 90%
kinase still bound, per cent of control (CDC42BPG (human)): 80%
kinase still bound, per cent of control (CDK14 (human)): 18%
kinase still bound, per cent of control (CDK18 (human)): 12%
kinase still bound, per cent of control (CIT (human)): 29%
kinase still bound, per cent of control (CLK1 (human)): 34%
kinase still bound, per cent of control (EPHA4 (human)): 55%
kinase still bound, per cent of control [1]: 0%
kinase still bound, per cent of control (HIPK1 (human)): 7.6%
kinase still bound, per cent of control (IRAK3 (human)): 26%
kinase still bound, per cent of control (ITK (human)): 11%
kinase still bound, per cent of control [2]: 0%
kinase still bound, per cent of control [3]: 0.9%
kinase still bound, per cent of control [4]: 0%
kinase still bound, per cent of control (LATS2 (human)): 60%
kinase still bound, per cent of control (LCK (human)): 4.8%
kinase still bound, per cent of control (LIMK2 (human)): 92%
kinase still bound, per cent of control (LYN (human)): 6.2%
kinase still bound, per cent of control (MAK (human)): 0.8%
kinase still bound, per cent of control (MAP2K2 (human)): 26%
kinase still bound, per cent of control (MAP3K3 (human)): 38%
kinase still bound, per cent of control (MAP3K9 (human)): 3.4%
kinase still bound, per cent of control (MYO3B (human)): 100%
kinase still bound, per cent of control (NEK5 (human)): 80%
kinase still bound, per cent of control (NEK6 (human)): 85%
kinase still bound, per cent of control (PAK1 (human)): 68%
kinase still bound, per cent of control (PAK3 (human)): 7.7%
kinase still bound, per cent of control (PAK4 (human)): 21%
kinase still bound, per cent of control (PLK1 (human)): 100%
kinase still bound, per cent of control (PRKCD (human)): 100%
kinase still bound, per cent of control (PRKG1 (human)): 100%
kinase still bound, per cent of control (PRKG2 (human)): 24%
kinase still bound, per cent of control (PRKX (human)): 100%
kinase still bound, per cent of control (ROCK1 (human)): 61%
kinase still bound, per cent of control (ROCK2 (human)): 93%
kinase still bound, per cent of control (ROS1 (human)): 100%
kinase still bound, per cent of control (SIK1 (human)): 2.6%
kinase still bound, per cent of control (TAOK3 (human)): 71%
kinase still bound, per cent of control (ULK3 (human)): 1.3%
Compound: O=C1Nc2cc(Br)ccc2/C1=C1/Nc2ccccc2/C1=N\O
